# Test results taken from the supplement of paper PMC10307832.
# Tests used:
# Test in all cases: relative viability (nuclei count vs DMSO), 5 days (fraction); higher = more cells survive
# [1] = compound: O=c1ncccn1[C@@H]1O[C@H](CO)[C@@H](O)[C@H]1O [Zebularine] + COc1cccc2cc(-c3nc([C@H]4CC[C@H](C(=O)O)CC4)n4ncnc(N)c34)[nH]c12 [OSI-027] (partner 0.5 µM)
# Summary of the method: (§1)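 Lung cancer cell lines were pin-tool dosed in 1536-well plates on the day after seeding, with either a lone drug or a fixed anchor-drug dose plus five library-drug doses (not always all listed) in √10 steps. Nuclei were counted on 4× images after 5 days. Relative viability is the ratio of treated-well to vehicle-well nuclei counts, with each value a median of duplicate plates.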
# [2] = compound: O=c1ncccn1[C@@H]1O[C@H](CO)[C@@H](O)[C@H]1O [Zebularine] + O=C(CCCCCCC(=O)Nc1ccccc1)NO [Vorinostat] (partner 1 µM)
# Summary of the method: as §1
# [3] = compound: O=c1ncccn1[C@@H]1O[C@H](CO)[C@@H](O)[C@H]1O [Zebularine] + C[C@]1(O)C[C@@H](c2nc(-c3ccc4ccc(-c5ccccc5)nc4c3)c3c(N)nccn32)C1 [Linsitinib] (partner 1 µM)
# Summary of the method: as §1
# [4] = compound: O=c1ncccn1[C@@H]1O[C@H](CO)[C@@H](O)[C@H]1O [Zebularine] + Cc1nc(NC(=O)N2CCC[C@H]2C(N)=O)sc1-c1ccnc(C(C)(C)C(F)(F)F)c1 [Alpelisib] (partner 2 µM)
# Summary of the method: as §1
cell line,measurement,setting,value
NCI-H2342,relative viability,[1]; first compound 1 µM,0.709
same,relative viability,[1]; first compound 3.162 µM,0.621
same,relative viability,[1]; first compound 10 µM,0.589
same,relative viability,[1]; first compound 31.62 µM,0.626
same,relative viability,[1]; first compound 100 µM,0.627
same,relative viability,[2]; first compound 1 µM,0.863
same,relative viability,[2]; first compound 3.162 µM,0.642
same,relative viability,[2]; first compound 10 µM,0.674
same,relative viability,[2]; first compound 31.62 µM,0.679
same,relative viability,[2]; first compound 100 µM,0.712
HCC-15,relative viability,[1]; first compound 1 µM,0.85
same,relative viability,[1]; first compound 3.162 µM,0.587
same,relative viability,[1]; first compound 10 µM,0.457
same,relative viability,[1]; first compound 31.62 µM,0.537
same,relative viability,[1]; first compound 100 µM,0.27
same,relative viability,[3]; first compound 1 µM,0.983
same,relative viability,[3]; first compound 3.162 µM,0.883
same,relative viability,[3]; first compound 10 µM,0.615
same,relative viability,[3]; first compound 31.62 µM,0.773
same,relative viability,[3]; first compound 100 µM,0.251
same,relative viability,[4]; first compound 1 µM,1.01
same,relative viability,[4]; first compound 3.162 µM,0.887
same,relative viability,[4]; first compound 10 µM,0.596
same,relative viability,[4]; first compound 31.62 µM,0.654
same,relative viability,[4]; first compound 100 µM,0.248
same,relative viability,[2]; first compound 1 µM,0.986
same,relative viability,[2]; first compound 3.162 µM,0.9
same,relative viability,[2]; first compound 10 µM,0.665
same,relative viability,[2]; first compound 31.62 µM,0.759
same,relative viability,[2]; first compound 100 µM,0.436
A-427,relative viability,[1]; first compound 1 µM,0.51
same,relative viability,[1]; first compound 3.162 µM,0.403
same,relative viability,[1]; first compound 10 µM,0.347
same,relative viability,[1]; first compound 31.62 µM,0.344
same,relative viability,[1]; first compound 100 µM,0.268
same,relative viability,[3]; first compound 1 µM,1.12
same,relative viability,[3]; first compound 3.162 µM,1.08
same,relative viability,[3]; first compound 10 µM,0.855
same,relative viability,[3]; first compound 31.62 µM,0.513
same,relative viability,[3]; first compound 100 µM,0.256
same,relative viability,[4]; first compound 1 µM,1.08
same,relative viability,[4]; first compound 3.162 µM,0.993
same,relative viability,[4]; first compound 10 µM,0.785
same,relative viability,[4]; first compound 31.62 µM,0.412
same,relative viability,[4]; first compound 100 µM,0.237
same,relative viability,[2]; first compound 1 µM,0.96
same,relative viability,[2]; first compound 3.162 µM,0.855
same,relative viability,[2]; first compound 10 µM,0.703
same,relative viability,[2]; first compound 31.62 µM,0.666
same,relative viability,[2]; first compound 100 µM,0.361
NCI-H2228,relative viability,[1]; first compound 1 µM,0.604
same,relative viability,[1]; first compound 3.162 µM,0.514
same,relative viability,[1]; first compound 10 µM,0.284
same,relative viability,[1]; first compound 31.62 µM,0.607
same,relative viability,[1]; first compound 100 µM,0.275
same,relative viability,[3]; first compound 1 µM,0.616
same,relative viability,[3]; first compound 3.162 µM,0.666
same,relative viability,[3]; first compound 10 µM,0.514
same,relative viability,[3]; first compound 31.62 µM,0.509
same,relative viability,[3]; first compound 100 µM,0.409
same,relative viability,[4]; first compound 1 µM,0.782
same,relative viability,[4]; first compound 3.162 µM,0.615
same,relative viability,[4]; first compound 10 µM,0.632
same,relative viability,[4]; first compound 31.62 µM,0.693
same,relative viability,[4]; first compound 100 µM,0.374
same,relative viability,[2]; first compound 1 µM,0.825
same,relative viability,[2]; first compound 3.162 µM,0.671
same,relative viability,[2]; first compound 31.62 µM,0.412
same,relative viability,[2]; first compound 100 µM,0.377
NCI-H1734,relative viability,[1]; first compound 1 µM,0.672
same,relative viability,[1]; first compound 3.162 µM,0.556
same,relative viability,[1]; first compound 10 µM,0.488
same,relative viability,[1]; first compound 31.62 µM,0.425
same,relative viability,[1]; first compound 100 µM,0.317
same,relative viability,[3]; first compound 1 µM,0.917
same,relative viability,[3]; first compound 3.162 µM,0.87
same,relative viability,[3]; first compound 10 µM,0.526
same,relative viability,[3]; first compound 31.62 µM,0.532
same,relative viability,[3]; first compound 100 µM,0.333
same,relative viability,[4]; first compound 1 µM,0.738
same,relative viability,[4]; first compound 3.162 µM,0.725
same,relative viability,[4]; first compound 10 µM,0.387
same,relative viability,[4]; first compound 31.62 µM,0.396
same,relative viability,[4]; first compound 100 µM,0.347
same,relative viability,[2]; first compound 1 µM,0.983
same,relative viability,[2]; first compound 3.162 µM,0.717
same,relative viability,[2]; first compound 10 µM,0.425
same,relative viability,[2]; first compound 31.62 µM,0.401
same,relative viability,[2]; first compound 100 µM,0.253
PC-14,relative viability,[1]; first compound 1 µM,0.778
same,relative viability,[1]; first compound 3.162 µM,0.437
same,relative viability,[1]; first compound 10 µM,0.146
same,relative viability,[1]; first compound 31.62 µM,0.121
same,relative viability,[1]; first compound 100 µM,0.0877
same,relative viability,[3]; first compound 1 µM,1.07
same,relative viability,[3]; first compound 3.162 µM,0.996
same,relative viability,[3]; first compound 10 µM,0.281
same,relative viability,[3]; first compound 31.62 µM,0.143
same,relative viability,[3]; first compound 100 µM,0.179
same,relative viability,[4]; first compound 1 µM,1.04
same,relative viability,[4]; first compound 3.162 µM,0.953
same,relative viability,[4]; first compound 10 µM,0.232
same,relative viability,[4]; first compound 31.62 µM,0.111
same,relative viability,[4]; first compound 100 µM,0.163
same,relative viability,[2]; first compound 1 µM,0.756
same,relative viability,[2]; first compound 3.162 µM,0.439
same,relative viability,[2]; first compound 10 µM,0.214
same,relative viability,[2]; first compound 31.62 µM,0.154
same,relative viability,[2]; first compound 100 µM,0.0885
NCI-H1915,relative viability,[1]; first compound 1 µM,0.672
same,relative viability,[1]; first compound 3.162 µM,0.548
same,relative viability,[1]; first compound 31.62 µM,0.622
same,relative viability,[1]; first compound 100 µM,0.486
same,relative viability,[3]; first compound 1 µM,1.09
same,relative viability,[3]; first compound 3.162 µM,1.08
same,relative viability,[3]; first compound 10 µM,1.07
same,relative viability,[3]; first compound 31.62 µM,1.09
same,relative viability,[3]; first compound 100 µM,0.94
same,relative viability,[4]; first compound 1 µM,1.18
same,relative viability,[4]; first compound 3.162 µM,1.05
same,relative viability,[4]; first compound 10 µM,0.984
same,relative viability,[4]; first compound 31.62 µM,1.05
same,relative viability,[4]; first compound 100 µM,0.93
same,relative viability,[2]; first compound 1 µM,0.538
same,relative viability,[2]; first compound 3.162 µM,0.53
same,relative viability,[2]; first compound 10 µM,0.412
same,relative viability,[2]; first compound 31.62 µM,0.607
same,relative viability,[2]; first compound 100 µM,0.585
